From patent USRE38167E1, “Weight reduction method for cats and other pets” (International Flora Technologies Ltd, priority 1996, dated 2003) come the findings set out here.

SMILES strings stand for the structures.

This test is described as follows: Cat free-choice feeding study: daily food intake. Type of test: in vivo. Conditions: overweight cats. As to the method:
All feeding studies were conducted from Feb. 26, 1998 to Sep. 17, 1998 at Summit Ridge Farms, Susquehanna, Pa. All were adult domestic short-haired cats. Most were quite old, as they had been in the colony 3 to 14 years and were thought to have been 1 to 4 years of age when they were obtained (Table 11). Just before beginning the study, all cats were given a thorough physical examination by a veterinarian. […] Each cat's current and estimated optimum weight were determined during this exam. […] All cats were housed individually with 12 hr light and dark cycles, and at a temperature of 60 to 85° F. and humidity of 30 to 70%. Food bowls, water bowls and litter boxes were emptied and sanitized daily. Water and the diet being fed were always available for free choice consumption except the night before the cats were to be weighed, when food bowls were removed. The amount of diet consumed was recorded, diet uneaten discarded and fresh diet fed daily. Weekly, following an overnight (14-hr) fast, each cat was weighed. Each cat was initially fed the non-jojoba containing diet FC-0 for 4 weeks, or until it was 14% or more over its estimated optimum weight, at which time it was fed either the diet containing 4% (FC-2) or 8% (FC-3) jojoba. Cats whose weight decreased by more than 4.6% in 1 week, or 6% in 2 weeks, were changed to the next lower jojoba-containing diet. […] When a cat was within 2.0% of its optimum weight, it was changed to a lower jojoba-containing diet; either that containing 2% or 4% (FC-1 or FC-2). If optimum body weight wasn't maintained when this diet was fed, the cat was changed to a higher jojoba-containing diet if it had gained weight and a lower jojoba-containing diet if it had lost weight. When the cat's weight had been maintained within 4% of its optimum for 4 weeks while eating the same diet, it was given a thorough physical exam by a veterinarian and removed from the study.

Turning to `CO[C@H]1[C@@H](OC)C[C@@H](O[C@@H]2O[C@H](CO)[C@@H](O)[C@H](O)[C@H]2O)/C(=C\C#N)[C@@H]1O` [Simmondsin, simmondsin], the “Percent Decrease in Food Intake” value (0.12% bioactive simmondsin activity in diet) is given as 17.8%, the “Percent Decrease in Food Intake” value (0.24% bioactive simmondsin activity in diet) is recorded as 30.7%, the “Percent Decrease in Food Intake” value (0.49% bioactive simmondsin activity in diet) is on record as 45.9% and the “Percent Decrease in Food Intake” value (0.73% bioactive simmondsin activity in diet) stood at 49.2%.
